{"source": "patent EP0986381B1", "about": "“USE OF DITERPENES LIKE HYPOESTOXIDES FOR THE MANUFACTURE OF A MEDICAMENT FOR IMMUNOSUPPRESSION, ANTICANCER AND ANTIVIRAL TREATMENT” (Immune Modulation, Inc., priority 1997, dated 1998)", "key": {"[1]": {"system": "human two-way mixed lymphocyte reaction (PBMCs from two individuals)", "experiment": "Two-way mixed leukocyte reaction (MLR), 3H-thymidine incorporation", "assay_type": "cell-based", "experimental": "The MLR is an assay recognized by those skilled in the art as an in vitro predictor of in vivo immunosuppressant activity. The MLR is an in vitro model of T-cell recognition of foreign major histocompatibility complex (MHC) gene products and was used as a predictive test of cell-mediated graft rejection (Abbas, A.K., et al., eds, 1994, 2nd ed. Cellular and Molecular Immunology, W.B. Saunders Co., USA). Graft rejection is carried out by T cells that recognize MHC molecules and destroy the graft. This process can be studied in vivo, but in-depth analysis, especially in humans, required the development of tests such as the MLR as an in vitro correlate of graft rejection. (Janeway, Chas. and Travers, Paul, Immunobiology, 2nd Ed., Garland Publishing, Inc, New York (1996)). It is well known in the art that the MLR is induced by co-culturing mononuclear leukocytes from one individual with mononuclear leukocytes derived from another individual. If there are differences in the alleles of the MHC genes between the two individuals, a large proportion of the mononuclear cells will proliferate over a period of 4-7 days, and is referred to as allogeneic MLR. The level of proliferative response is measured by incorporation of ^3H-thymidine into DNA during cell replication. Because the cells from each donor react and proliferate against the other, the resultant response is known as a \"two-way MLR\". JO-4 was tested in the MLR for its ability to \"immunosuppress\".\nMononuclear cells (at 2 x 10^6/ml) of each donor were first mixed thoroughly together in a 50 ml tube at a 1:1 ratio with volume. […] Cells were harvested onto glass fiber filters (Packard, Downers Grove, IL) with a 96-well automatic cell harvester (TOMTEC, Hamden, CT) and were counted directly on a Matrix 9600 beta counter (Packard).\nData were expressed as percent inhibition (% Inhibition) according to the following formula: % Inhibition = 100 -((Counts per minute (CPM) for wells with drug x 100))/(CPM for wells without drug) [formula] […]"}, "HSV-2": {"system": "HSV-2", "experiment": "In vitro HSV-2 replication assay, Hybriwix Probe Systems", "assay_type": "cell-based, Herpes simplex virus", "experimental": "The antiviral activity of the drug was determined using the Hybriwix™ Probe Systems (Herpes Antiviral Susceptibility Test kit: Diagnostic Hybrids, Inc., Athens, OH). Briefly, either HSV-1 or HSV-2 isolates (ATTC, Rockville, MD) were pre-adsorbed at 37°C and 5% CO2 in a humidified incubator for 60 minutes on African green monkey Kidney cells in a 24-well flat-bottom plate. Following pre-adsorption, the viral inoculum was removed and the growth medium containing various concentrations of appropriate drug was placed in appropriate wells. The culture was continued for 48 hours for the amplification of the virus. Quantification of the HSV DNA present in each well was determined by the nucleic acid hybridization method. The cells and/or virus were lysed with DNA wicking agent and the single-stranded DNA was immobilized on a Hybriwix™ filter by a vertical capillary absorption of the wicking agent/DNA solution. The amount of HSV target DNA from each well was determined using radioactive (I^125)-HSV DNA probe containing genetic sequences, which are homologous to HSV-1 or HSV-2 sequences. The amount of radioactivity present on the Hybriwix™ was dependent upon the amount of HSV DNA present after culture, and was determined in a gamma counter (Packard Instrument Co., Meriden, CT)."}, "[2]": {"experiment": "Colorimetric MTT cytotoxicity assay, CV-1 cells", "assay_type": "cell-based", "conditions": "african green monkey, read-out: concentration giving cytotoxicity of greater than 50%", "experimental": "Normal African green monkey kidney cells (CV-1): CV-1 cells from the Hybriwix™ Probe Systems: Herpes Antiviral Susceptibility Test kit (Diagnostic Hybrids, Inc., Athens, OH) were used for toxicity testing of JO-4A by MTT assay. Colorimetric MTT assay: Cytotoxic effects of drugs were determined in vitro by a colorimetric assay (Mosmann, T., J. Immunol. Methods, 65: 55-63, 1983). Briefly, 1000 cells per well (100 µl) in a 96-well flat-bottom plate were cultured either with the culture medium alone or with various concentrations of drug at 37°C, in a 5% CO2-95% air humidified incubator for 72 hours. At the end of the culture, 10 µl of 5 mg/ml sterile solution of 3-(4,5-Dimethylthiazol-2yl)-2,5-diphenyltetrazolium bromide (MTT) (Sigma Chemicals, Saint Louis, MO) in PBS was added per well and the incubation was resumed for an additional 4 hours. Acid-isopropanol (100 µl of 0.04 N HCl in isopropanol) was added to all wells and kept at room temperature for 30 minutes. Mixing with a multichannel pipetter dissolved the dark blue crystals and the absorbance was measured at 545-650 nm using an ELISA plate reader."}}, "data": [{"molecule": "C=C1C(=O)C[C@H]2C[C@@H]3O[C@@]3(C)CC[C@@H]3O[C@@]3(C)C[C@@H](OC(C)=O)[C@H]1C2(C)C", "note": "[JO-4, hypoestoxide]", "values": [{"measurement": "effect on two-way MLR", "setting": "[1]; JO-4 at 1.0, 0.5 or 0.25 µg/ml, 5 days", "result": "inhibited"}, {"measurement": "inhibition at 3.125 µM", "setting": "HSV-2; Human alphaherpesvirus 2, 48 h, 3.125 µM, two days, African green monkey kidney cells", "result": 58, "unit": "%"}, {"measurement": "inhibition at 12.5 µM", "setting": "HSV-2; Human alphaherpesvirus 2, 48 h, 12.5 µM, two days, African green monkey kidney cells", "result": 65, "unit": "%"}, {"measurement": "IC50", "setting": "HSV-2; Human alphaherpesvirus 2, 48 h, two days, African green monkey kidney cells, read-out: IC50 dose on HSV-1 inhibition (paragraph on HSV-2 replication)", "result": "< 3.12", "unit": "µM"}, {"measurement": "CC50 at 72 h", "setting": "[2]", "result": "> 50", "unit": "µM"}]}, {"molecule": "C=C1C(=O)CC2CC3OC3(C)CCC3OC3(C)CC(O)C1C2(C)C", "note": "(stereo not drawn) [JO-4A]", "values": [{"measurement": "IC50", "setting": "[1]; Homo sapiens, Leukocyte, 120 h, 5 days", "result": "5 to 10", "unit": "µM"}, {"measurement": "inhibition at 10 µM", "setting": "[1]; Homo sapiens, Leukocyte, at 10.0 µM", "result": 64, "unit": "%"}, {"measurement": "replication and growth of HSV-2", "setting": "HSV-2; African Green Monkey kidney cells", "result": "inhibited"}, {"measurement": "CC50 at 72 h", "setting": "[2]", "result": "~25", "unit": "µM"}]}]}
